Where two headings read alike, the source gives them in different places.
Tests used:
[1] = tested on: subjects with bilateral patello-femoral knee osteoarthritis; assay: Randomized double-blind placebo-controlled clinical study of TPX-100, efficacy by KOOS/WOMAC patient reported outcomes; assay type: in vivo, human; conditions: for Severity of pain going up or down stairs, treated vs placebo-treated knee (in words): p=0.004; for Pain alleviation in other activities or statuses of KOOS pain: activities other than going up or down stairs (and bending knee fully), any time point; for Knee functions, KOOS ADL (Function of Daily Living) and WOMAC function, treated vs placebo-treated knees: both 6 and 12 months after treatment, FIG. 12
Experimental: For this activity, the peptide of SEQ ID No. 1 was tested for its clinical safety and efficacy on a condition involving cartilage damage in a Phase 2 randomized double-blind controlled clinical trial with mild to severe knee osteoarthritis (OA) patients. See EXAMPLES.
The KOOS ADL (Function of Daily Living) consists of 17 questions asking degree of difficulty in functioning each knee during 17 different activities in daily living. Those 17 activities are broadly ranged from light to heavy duties. With regard to each activity, difficulty of each knee function is scored in 0-4 range where 0 as no difficulty and 4 as the most difficulty. The sum of the scores range from 0 to 68 (4×17), which is then converted to a 0-100 scale is KOOS ADL score. WOMAC function consists of the same questions with same scoring, except the total score range is not converted to 0-100 but remains 0-68.
The KOOS pain domain consists of 9 questions and each question is scored in 0-4 range. The sum of the scores, 0-36 (4×9), which is converted to a 0-100 scale to generate a KOOS pain score. While the first of the 9 questions asks for the frequency of knee pain, the other 8 questions ask for severity of knee pain during different activities or positions, where 0 is “never” experiencing pain and 4 is “always” experiencing pain. These 8 activities range from positions with little to no motion such as “at night while in bed” to those with high joint loading such as “going up or down stairs” (See FIG. 2). WOMAC pain consists of the same questions with the same scoring, except that the total score is not converted to a 100-point scale but remains in the range 0-36.
MRIs of both knees were evaluated by a central reader to determine the ICRS grade (gICRS) of each knee. If the cartilage of patello-femoral compartment in both knees fell within ICRS grades 1-3, or 4 with only focal defects, no defects greater than 1 cm, and all other inclusion criteria were met, with none of the exclusion criteria, the subject was registered. The randomization center randomized each subject to either Right knee active or Left knee active, with the active knee to receive TPX-100 and the contralateral knee to receive identical placebo.
For enrolled subjects, there was within-subject randomization, such that one knee received active drug injections, and the contralateral knee received identical placebo injections. Using subjects as their own control permits reduction of confounders such as weight, activity level, pain threshold, and uncharacterized genetic susceptibilities to OA progression. As two knees within a person form a matched set, the effects of individual-level confounders that are difficult to quantify (e.g. level of activity, genetic and epigenetic factors, pain threshold) are eliminated, increasing the power of the study to detect a treatment effect if one is present.
All KOOS subscale scores were analyzed. The primary analysis was carried out using a two-sided paired t-test at the 5% level of significance. The outcome variable was the difference between the change of the score of each subscale of KOOS from baseline in the treated knee (“Index Knee”) and the change from baseline in the placebo-treated knee (“Control Knee”).
Ninety-three (93) subjects who received 200 mg per dose of TPX-100 in one knee and placebo in contralateral knee were analyzed for efficacy.

[2] = tested on: standardized large cartilage defects; conditions: four weekly intra-articular injections, cited from earlier work
[3] = tested on: subjects with bilateral patello-femoral knee osteoarthritis
Experimental: Eighteen (18) orthopedic, rheumatologic and family practice centers in the U.S. participated in the study.
A Safety Review Committee (SRC) evaluated safety in each dosing cohort. The SRC assessed safety and dose-limiting toxicities, if evident, and determined whether the next higher dosing regimen might be enrolled. Part A were completed and analyzed with regard to safety prior to dose selection and initiation of Part B.
Six (6) subjects were enrolled in 20, 50, and 100 mg cohorts, respectively, and nine (9) subjects were enrolled in 200 mg cohort. Each dosing cohort was reviewed based on safety analysis of dose groups in Part A.
No other doses of drug or placebo were administered. All subjects visited their respective clinical sites at 3, 6, and 12 months after the first dosing for their safety and efficacy assessments.
On the first dosing day, the randomized subjects were assessed for their general health conditions by physical examinations and vital signs. Further, they completed self-reported assessments of the conditions of each of their knees as well as systemic health by the questionnaires of KOOS (Knee injury and Osteoarthritis Outcome Score), which includes subscales of WOMAC (Western Ontario and McMaster Universities Osteoarthritis Index). KOOS is a questionnaire that assesses knee-specific activities of daily living, sports and recreation function, knee-related quality of life, symptom, and knee pain. […] After these assessments, subjects received one intra-articular injection in each knee, with each injection prepared from the vial(s) marked for that knee. One knee received TPX-100, and the contralateral knee received placebo, in a triple-blind fashion (subject, site, and sponsor all blinded to treatment assignment). Subjects were monitored for adverse events during the injections and for a few hours after the injections. Vital signs were also monitored after the injections.
On the 7th, 14th, and 21st days after the first dosing, subjects received the second, third, and fourth (last) dosing of the same study materials, respectively, as well as safety and adverse event assessments in the same way as the first dosing day.
Subjects returned to their respective study sites at 3, 6 and 12 months after the first dosing day for follow-up evaluations. In addition, the study sites monitored the subject's condition through telephone contact 9 months after the first dosing day. During the 3, 6, and 12 months post-treatment follow-up on-site visits, subjects were evaluated by physical examination, vital signs, serum chemistry, as well as KOOS. Adverse events and concomitant medications were also recorded.

[4] = stated as known, no test described, cited from earlier work
[5] = 12 months, 200 mg, listed as peptide of SEQ ID No. 1
[6] = 200 mg, listed as peptide of SEQ ID No. 1

**Q.** With TDLQERGDNDISPFSGDGQPFKD [TPX-100] as the sequence, how does the “Function improvement across the 17 activities of KOOS ADL, treated vs placebo-treated knee” value ([1]; 200 mg) read?
**A.** observed in most of the 17 light to heavy activities

**Q.** And the “Frequency of overall knee pain, Index vs Control knees (in words)” value ([1]; 12 months, 200 mg)?
**A.** significantly improved (p=0.04)

**Q.** What about the “Severity of pain bending knee fully, treated vs placebo-treated knee (in words)” value ([1]; 12 months, 200 mg) of the same sequence?
**A.** trend (p<0.09) of improvement

**Q.** What about the “Frequency of overall knee pain, Index vs Control knees (in words)” value [1, 5] of the same sequence?
**A.** significantly reduced

**Q.** And the “Severity of pain bending knee fully, treated vs placebo-treated knee (in words)” value [1, 5]?
**A.** near statistically significant pain alleviation

**Q.** What about the “Severity of pain going up or down stairs, treated vs placebo-treated knee (in words)” value ([1]; 12 months, 200 mg) of the same sequence?
**A.** highly significant

**Q.** And the “Severity of pain going up or down stairs, treated vs placebo-treated knee (in words)” value [1, 5]?
**A.** statistically significant improvement

**Q.** And the “Score Change from Baseline to 12 Months, Index: How often do you experience RIGHT/LEFT knee pain?” value ([1]; KOOS Pain Question 1 (frequency, score 0-4), TPX-100 treated knees, 200 mg intra-articular, 4 weekly doses, 12 months)?
**A.** −0.62

**Q.** What about the “Difference = [Index score change] − [Control score change]: How often do you experience RIGHT/LEFT knee pain?” value ([1]; KOOS Pain Question 1, TPX-100 vs placebo treated knees, baseline to 12 months, 200 mg) of the same sequence?
**A.** −0.26

**Q.** And the “Score Change from Baseline to 12 Months, Index: Twisting/pivoting on your knee” value ([1]; KOOS Pain Question 2 (severity, score 0-4), TPX-100 treated knees, 200 mg intra-articular, 4 weekly doses, 12 months)?
**A.** −0.19

**Q.** What about the “Difference = [Index score change] − [Control score change]: Twisting/pivoting on your knee” value ([1]; KOOS Pain Question 2, TPX-100 vs placebo treated knees, baseline to 12 months, 200 mg) of the same sequence?
**A.** −0.09

**Q.** What about the “Score Change from Baseline to 12 Months, Index: Straightening knee fully moving” value ([1]; KOOS Pain Question 3 (severity, score 0-4), TPX-100 treated knees, 200 mg intra-articular, 4 weekly doses, 12 months) of the same sequence?
**A.** −0.30

**Q.** What about the “Difference = [Index score change] − [Control score change]: Straightening knee fully moving” value ([1]; KOOS Pain Question 3, TPX-100 vs placebo treated knees, baseline to 12 months, 200 mg) of the same sequence?
**A.** −0.12

**Q.** And the “Score Change from Baseline to 12 Months, Index: Bending knee fully” value ([1]; KOOS Pain Question 4 (severity, score 0-4), TPX-100 treated knees, 200 mg intra-articular, 4 weekly doses, 12 months)?
**A.** −0.45

**Q.** What about the “Difference = [Index score change] − [Control score change]: Bending knee fully” value ([1]; KOOS Pain Question 4, TPX-100 vs placebo treated knees, baseline to 12 months, 200 mg) of the same sequence?
**A.** −0.24

**Q.** And the “Score Change from Baseline to 12 Months, Index: Walking on flat surface” value ([1]; KOOS Pain Question 5 (severity, score 0-4), TPX-100 treated knees, 200 mg intra-articular, 4 weekly doses, 12 months)?
**A.** −0.25

**Q.** What about the “Difference = [Index score change] − [Control score change]: Walking on flat surface” value ([1]; KOOS Pain Question 5, TPX-100 vs placebo treated knees, baseline to 12 months, 200 mg) of the same sequence?
**A.** −0.12

**Q.** And the “Score Change from Baseline to 12 Months, Index: Going up or down stairs” value ([1]; KOOS Pain Question 6 (severity, score 0-4), TPX-100 treated knees, 200 mg intra-articular, 4 weekly doses, 12 months)?
**A.** −0.51

**Q.** What about the “Difference = [Index score change] − [Control score change]: Going up or down stairs” value ([1]; KOOS Pain Question 6, TPX-100 vs placebo treated knees, baseline to 12 months, 200 mg) of the same sequence?
**A.** −0.33

**Q.** What about the “Score Change from Baseline to 12 Months, Index: At night while in bed” value ([1]; KOOS Pain Question 7 (severity, score 0-4), TPX-100 treated knees, 200 mg intra-articular, 4 weekly doses, 12 months) of the same sequence?
**A.** −0.19

**Q.** And the “Difference = [Index score change] − [Control score change]: At night while in bed” value ([1]; KOOS Pain Question 7, TPX-100 vs placebo treated knees, baseline to 12 months, 200 mg)?
**A.** 0.00

**Q.** And the “Difference = [Index score change] − [Control score change]: Sitting or lying” value ([1]; KOOS Pain Question 8, TPX-100 vs placebo treated knees, baseline to 12 months, 200 mg)?
**A.** −0.02

**Q.** And the “Score Change from Baseline to 12 Months, Index: Standing upright” value ([1]; KOOS Pain Question 9 (severity, score 0-4), TPX-100 treated knees, 200 mg intra-articular, 4 weekly doses, 12 months)?
**A.** −0.34

**Q.** What about the “Difference = [Index score change] − [Control score change]: Standing upright” value ([1]; KOOS Pain Question 9, TPX-100 vs placebo treated knees, baseline to 12 months, 200 mg) of the same sequence?
**A.** −0.16

**Q.** What about the “Pain alleviation in other activities or statuses of KOOS pain” value ([1]; 200 mg) of the same sequence?
**A.** did not show statistically significant improvements

**Q.** And the “Pain alleviation in other activities or statuses of KOOS pain” value [1, 6]?
**A.** did not show pain alleviation with statistical significance or trend

**Q.** And the “KOOS Sports and Recreation subscale, Index vs Control knees” value ([1]; at 6 months, 200 mg)?
**A.** clinically meaningful and statistically significant improvement

**Q.** What about the “KOOS knee related quality of life (QOL) subscale, Index vs Control knees” value ([1]; at 12 months, 200 mg) of the same sequence?
**A.** clinically meaningful and statistically significant improvement

**Q.** What about the “Total KOOS pain subscale, Index vs Control knees” value ([1]; at 12 months, 200 mg) of the same sequence?
**A.** clinically meaningful and statistical trend (p<0.09) of improvement

**Q.** And the “Total KOOS pain subscale, Index vs Control knees” value ([1]; at 12 months, 200 mg, listed as peptide of SEQ ID No. 1)?
**A.** clinically meaningful improvement

**Q.** And the “Knee functions, KOOS ADL (Function of Daily Living) and WOMAC function, treated vs placebo-treated knees” value ([1]; 200 mg)?
**A.** clinically meaningful and statistically significant (p<0.05) improvement

**Q.** What about the “Knee functions, KOOS ADL (Function of Daily Living) and WOMAC function, treated vs placebo-treated knees” value [1, 6] of the same sequence?
**A.** clinically meaningful and highly statistically significant (p=0.008) improvement

**Q.** What about the “Total KOOS pain score, treated vs placebo treated knees” value ([1]; until 6 months after the treatment, 200 mg) of the same sequence?
**A.** very similar

**Q.** What about the “Articular cartilage regeneration compared to vehicle control group” value ([2]; 125 mg and 250 mg, 6 months post-surgery) of the same sequence?
**A.** histologically-confirmed and statistically significant articular cartilage regeneration

**Q.** And the “Safety and tolerability in goats” value ([2]; freely ambulatory animals)?
**A.** safe and well-tolerated

**Q.** What about the Dose-limiting toxicities ([3]; Part A, 20, 50, 100 and 200 mg per intra-articular injection, four weekly) of the same sequence?
**A.** no dose-limiting toxicities

**Q.** And the “Safety and tolerability of treatments” value ([3]; throughout the study period)?
**A.** safe and well tolerated

**Q.** What about the “Severe adverse events related to drug treatment” value ([3]; throughout the study period) of the same sequence?
**A.** no severe adverse events likely or possibly related to the drug treatment

**Q.** And the “Severity of treatment-related adverse events” value ([3]; throughout the study period)?
**A.** mild or moderate, transient

**Q.** What about the “Analgesic or anti-inflammatory activities” value [4] of the same sequence?
**A.** does not have any analgesic or anti-inflammatory activities

**Q.** What about the “Analgesic or anti-inflammatory activities” value ([4]; listed as peptide of SEQ ID No. 1) of the same sequence?
**A.** does not have any anti-inflammatory or analgesic activities
